Entries after “also recorded” stand apart in the source; their conditions may differ.
What was measured:
[1] = test system: mice treated with PCP serving as animal models of schizophrenia; experiment: Novel object recognition test (NORT) in mice repeatedly administered with PCP (animal model of schizophrenia); type: in vivo; details: for cognitive function in NORT (ratio of time to find the novel object relative to time to find the two objects): male ICR mice, PCP 10 mg/kg s.c. for ten days, test drug 10 mg/kg intraperitoneally on days 15, 18, 22, 25, vs PCP+physiological saline
Procedure: The creation of model animals of a cognitive impairment of schizophrenia and drug administration were specifically carried out as described below (FIG. 1). For the mice, male ICR mice (8 weeks old, Japan SLC Inc., Hamamatsu, Japan) were purchased. The mice were allowed to freely ingest water and feed. On the first day of testing, physiological saline (10 mL/kg bodyweight) or PCP (10 mg/kg bodyweight) was subcutaneously administered once a day for ten days (from the first day of testing to the fifth day of testing and from the eighth day of testing to the twelfth day of testing: no administration on the sixth and seventh days of testing). On the fifteenth day of testing, the eighteenth day of testing, the twenty-second day of testing, and the twenty-fifth day of testing, R-ketamine (10 mg/kg bodyweight) or a medium (10 mL/kg of physiological saline) was intraperitoneally administered. […] The novel object recognition test (NORT: novel object recognition test) is a system used to evaluate cognitive functions. The NORT was carried out according to a previous report (Hashimoto et al. Eur. J. Pharmacol. 2005; 519 (1-2): 114-117). From the twenty-sixth day to the twenty-eighth day of testing, acclimation to a NORT apparatus (50.8×50.8×25.4 cm) was performed for 10 minutes per day. On the twenty-ninth day of testing, two objects of different shapes and colors were placed 35.5 cm apart in the NORT apparatus, and an amount of time to find each object was measured. A training session (10 minutes) was carried out, and on the following day, the thirtieth day of testing, a test session (5 minutes) was carried out (FIG. 1). In the test session on the following day, one object was replaced with another, new object (novel object). An amount of time to find the two objects was measured, and in the test session on the second day, a ratio of an amount of time to find the novel object relative to the amount of time to find the two objects was calculated. On the day following the end of behavior testing, a brain region (frontal cortex, hippocampus) of the mice was extracted, and the brain tissue was stored in a freezer. Brain-derived neurotrophic factor (BDNF: brain-derived neurotrophic factor); TrkB, which is a BDNF receptor; and phosphorylated TrkB in the brain tissue were quantified by western blotting (FIG. 3).
The effect of S-ketamine was examined according to the method above. On the first day of testing, physiological saline (10 mL/kg bodyweight) or PCP (10 mg/kg bodyweight) was subcutaneously administered once a day for ten days (from the first day of testing to the fifth day of testing and from the eighth day of testing to the twelfth day of testing: no administration on the sixth and seventh days of testing). […]

BDNF-TrkB system = experiment: Western blotting of BDNF, TrkB and phosphorylated TrkB in frontal cortex and hippocampus of PCP-treated mice; type: in vivo; details: R-ketamine 10 mg/kg i.p., brain extracted after behavior testing
Procedure: The creation of model animals of a cognitive impairment of schizophrenia and drug administration were specifically carried out as described below (FIG. 1). For the mice, male ICR mice (8 weeks old, Japan SLC Inc., Hamamatsu, Japan) were purchased. The mice were allowed to freely ingest water and feed. On the first day of testing, physiological saline (10 mL/kg bodyweight) or PCP (10 mg/kg bodyweight) was subcutaneously administered once a day for ten days (from the first day of testing to the fifth day of testing and from the eighth day of testing to the twelfth day of testing: no administration on the sixth and seventh days of testing). On the fifteenth day of testing, the eighteenth day of testing, the twenty-second day of testing, and the twenty-fifth day of testing, R-ketamine (10 mg/kg bodyweight) or a medium (10 mL/kg of physiological saline) was intraperitoneally administered. […] On the day following the end of behavior testing, a brain region (frontal cortex, hippocampus) of the mice was extracted, and the brain tissue was stored in a freezer. Brain-derived neurotrophic factor (BDNF: brain-derived neurotrophic factor); TrkB, which is a BDNF receptor; and phosphorylated TrkB in the brain tissue were quantified by western blotting (FIG. 3). […]

[2] = test system: baby mice (male) born from pregnant mice administered with Poly (I:C); experiment: Novel object recognition test in offspring of pregnant mice administered with Poly (I:C) (maternal immune activation model); type: in vivo; details: male offspring of Poly (I:C) 5 mg/kg dams; R-ketamine 10 mg/kg i.p. twice a week, four weeks (weeks 4 to 8 after birth); NORT at 10 weeks old or thereafter
Procedure: The creation of model animals of a neurodevelopmental disorder such as schizophrenia or autism spectrum disorder (models of maternal immune activation) and drug administration were specifically carried out as described below (FIG. 5). For the mice, pregnant ddY mice (8 to 10 weeks old, Japan SLC Inc., Hamamatsu, Japan) were purchased. The mice were allowed to freely ingest water and feed. Physiological saline (5 mL/kg bodyweight) or Poly (I:C) (Sigma-Aldrich: 5 mg/kg bodyweight) was intraperitoneally administered for six days, from the twelfth day of pregnancy to the seventeenth day of pregnancy, according to previous reports (Han M, et al. Sci Rep 2016; 6:36087. Matsuura A, et al. Sci Rep 2018; 8: 2158. Ma M, et al. Proc Natl Acad Sci USA 2019; 116: 7083-7088). After birth, the mice were raised normally, and at 3 weeks old, only the male mice were weaned and raised. R-ketamine (10 mg/kg bodyweight) or a medium (10 mL/kg of physiological saline) was intraperitoneally administered twice a week for four weeks, from the fourth week after birth to the eighth week after birth. […] From 8 weeks old, these were raised normally. The above NORT was carried out at 10 weeks old or thereafter.
Statistical analysis was carried out by performing a one-way analysis of variance (one-way ANOVA) and subsequently performing Fisher's LSD (Fisher's LSD). […]

[3] = animal testing, non-patent literature 12 to 14; cited from earlier work
NMDA receptors = details: non-patent literature 11; cited from earlier work

SMILES	effect of ANA-12 pretreatment on the therapeutic effect of R-ketamine in NORT ([1]; PCP-treated mice, ANA-12 0.5 mg/kg i.p. 30 minutes before R-ketamine 10 mg/kg i.p.)	BDNF protein expression in the frontal cortex and the hippocampus (BDNF-TrkB system)	ratio p-TrkB/TrkB in the frontal cortex and the hippocampus (BDNF-TrkB system)	cognitive impairment at maturity in NORT [2]	side effects (such as drug dependency and an action of inducing a mental illness) compared to S-ketamine [3]	cognitive function in NORT, TrkB role study ([1]; PCP-treated mice, solvent 30 minutes before R-ketamine 10 mg/kg i.p. on days 15, 18, 22, 25)	cognitive function in NORT (ratio of time to find the novel object relative to time to find the two objects) [1]	affinity toward NMDA receptors relative to R-ketamine (NMDA receptors)
O=C(Nc1ccccc1C(=O)NC1CCCCNC1=O)c1cc2ccccc2s1 (stereo not drawn) [ANA-12, reference compound]	suppressed the therapeutic effect of R-ketamine	–	–	–	–	–	–	–
CN[C@@]1(c2ccccc2Cl)CCCCC1=O [R-ketamine]	–	significantly improved	significantly improved	suppressed a cognitive impairment at maturity	fewer side effects	significantly improved the reduced cognitive function due to PCP administration	significantly improved the reduced cognitive function due to PCP administration; also recorded: exhibits a therapeutic effect	–
CN[C@]1(c2ccccc2Cl)CCCCC1=O [S-ketamine, reference compound]	–	–	–	–	–	–	did not improve the reduced cognitive function due to PCP administration; also recorded: exhibited no therapeutic effect	stronger affinity toward NMDA receptors; also recorded: about four times higher than R-ketamine

— US20220110889A1, “R-KETAMINE AND DERIVATIVE THEREOF AS PROPHYLACTIC OR THERAPEUTIC AGENT FOR NEURODEV[…]” (National University Corporation Chiba University, priority 2018, published 2022)
